ChEMBL document CHEMBL3352757, “Mono- and di-halogenated histamine, histidine and carnosine derivatives are potent carbonic anhydrase I, II, VII, XII and XIV activators” (Bioorg Med Chem, 2014)

Biological target: Carbonic anhydrase 1 (Homo sapiens) (UniProt P00915)
Assay: Activation of […] human carbonic anhydrase-1 incubated for 15 mins prior to testing by stopped-flow CO2 hydrase assay

Chain of Carbonic anhydrase 1 (Homo sapiens) (P00915 2-261 limits assumed): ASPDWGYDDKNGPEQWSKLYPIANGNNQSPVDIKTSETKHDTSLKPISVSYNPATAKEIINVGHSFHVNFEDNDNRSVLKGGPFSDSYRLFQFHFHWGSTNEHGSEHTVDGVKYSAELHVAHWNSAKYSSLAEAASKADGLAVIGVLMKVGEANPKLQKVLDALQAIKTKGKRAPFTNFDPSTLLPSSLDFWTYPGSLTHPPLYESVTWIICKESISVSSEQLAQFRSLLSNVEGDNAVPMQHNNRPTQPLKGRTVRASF

Row | SMILES | KA
1 | COC(=O)[C@H](Cc1nc[nH]c1Br)NC(=O)CCN | 2.1 µM
2 | COC(=O)[C@@H](N)Cc1c[nH]cn1 | 0.02 µM
3 | NCCc1nc(I)[nH]c1I | 0.0007 µM
4 | COC(=O)[C@@H](N)Cc1nc[nH]c1Cl | 21.3 µM
5 | CC(C)(C)OC(=O)NCCc1nc[nH]c1Cl | 5.4 µM
6 | COC(=O)[C@H](Cc1nc[nH]c1Cl)NC(=O)CCN | 1.25 µM
7 | NCCc1nc(Br)[nH]c1Br | 0.012 µM
8 | CC(C)(C)OC(=O)NCCc1nc[nH]c1Br | 7.1 µM
9 | NCCc1nc[nH]c1Br | 0.015 µM
10 | COC(=O)[C@H](Cc1c[nH]cn1)NC(=O)CCN | 10.9 µM
11 | COC(=O)[C@@H](N)Cc1nc(Br)[nH]c1Br | 1.4 µM
12 | NCCc1nc[nH]c1I | 0.0009 µM

Second part, the molecule after the results:

Row | KA | SMILES
13 | 0.0015 µM | COC(=O)[C@H](Cc1nc(I)[nH]c1I)NC(=O)OC(C)(C)C
14 | 12.1 µM | CC(C)(C)OC(=O)NCCc1nc(I)[nH]c1I
15 | 21.4 µM | COC(=O)[C@H](Cc1nc(I)[nH]c1I)NC(=O)CCN
16 | 16.5 µM | CC(C)(C)OC(=O)NCCc1nc(Cl)[nH]c1Cl
17 | 7.3 µM | COC(=O)[C@H](Cc1nc[nH]c1Br)NC(=O)OC(C)(C)C
18 | 22.5 µM | COC(=O)[C@H](Cc1nc(Cl)[nH]c1Cl)NC(=O)CCN
19 | 0.0009 µM | COC(=O)[C@H](Cc1nc[nH]c1I)NC(=O)OC(C)(C)C

Biological target: Carbonic anhydrase 2 (Homo sapiens) (UniProt P00918)
Assay: Activation of […] human carbonic anhydrase-2 incubated for 15 mins prior to testing by stopped-flow CO2 hydrase assay

Row | SMILES | KA
20 | COC(=O)[C@H](Cc1nc[nH]c1Br)NC(=O)CCN | 1.78 µM
21 | COC(=O)[C@@H](N)Cc1c[nH]cn1 | 10.4 µM
22 | NCCc1nc(I)[nH]c1I | 0.001 µM
23 | COC(=O)[C@@H](N)Cc1nc[nH]c1Cl | 13.1 µM
24 | CC(C)(C)OC(=O)NCCc1nc[nH]c1Cl | 50.2 µM
25 | COC(=O)[C@H](Cc1nc[nH]c1Cl)NC(=O)CCN | 30.9 µM
26 | NCCc1nc(Br)[nH]c1Br | 0.008 µM
27 | CC(C)(C)OC(=O)NCCc1nc[nH]c1Br | 44.5 µM
28 | NCCc1nc[nH]c1Br | 0.096 µM
29 | COC(=O)[C@H](Cc1c[nH]cn1)NC(=O)CCN | 32 µM
30 | COC(=O)[C@@H](N)Cc1nc(Br)[nH]c1Br | 1.08 µM
31 | NCCc1nc[nH]c1I | 0.065 µM

The remaining lines, values ahead:

Row | KA | SMILES
32 | 0.013 µM | COC(=O)[C@H](Cc1nc(I)[nH]c1I)NC(=O)OC(C)(C)C
33 | 36.7 µM | CC(C)(C)OC(=O)NCCc1nc(I)[nH]c1I
34 | 2.9 µM | COC(=O)[C@H](Cc1nc(I)[nH]c1I)NC(=O)CCN
35 | 24.8 µM | CC(C)(C)OC(=O)NCCc1nc(Cl)[nH]c1Cl
36 | 26.5 µM | COC(=O)[C@H](Cc1nc[nH]c1Br)NC(=O)OC(C)(C)C
37 | 10.9 µM | COC(=O)[C@H](Cc1nc(Cl)[nH]c1Cl)NC(=O)CCN
38 | 0.012 µM | COC(=O)[C@H](Cc1nc[nH]c1I)NC(=O)OC(C)(C)C

Biological target: Carbonic anhydrase 7 (Homo sapiens) (UniProt P43166)
Assay: Activation of […] human carbonic anhydrase-7 incubated for 15 mins prior to testing by stopped-flow CO2 hydrase assay

Chain of Carbonic anhydrase 7 (Homo sapiens) (P43166 whole entry): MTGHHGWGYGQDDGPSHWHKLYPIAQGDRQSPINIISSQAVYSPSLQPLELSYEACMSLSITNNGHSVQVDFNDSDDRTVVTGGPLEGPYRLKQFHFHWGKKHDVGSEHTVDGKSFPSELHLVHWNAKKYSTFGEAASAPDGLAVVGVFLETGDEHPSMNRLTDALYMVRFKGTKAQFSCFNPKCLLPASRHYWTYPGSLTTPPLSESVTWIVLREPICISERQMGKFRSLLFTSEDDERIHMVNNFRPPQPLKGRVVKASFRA

Row | SMILES | KA
39 | COC(=O)[C@H](Cc1nc[nH]c1Br)NC(=O)CCN | 1.02 µM
40 | COC(=O)[C@@H](N)Cc1c[nH]cn1 | 0.88 µM
41 | NCCc1nc(I)[nH]c1I | 1.39 µM
42 | COC(=O)[C@@H](N)Cc1nc[nH]c1Cl | 36.1 µM
43 | CC(C)(C)OC(=O)NCCc1nc[nH]c1Cl | 24.9 µM
44 | COC(=O)[C@H](Cc1nc[nH]c1Cl)NC(=O)CCN | 0.013 µM
45 | NCCc1nc(Br)[nH]c1Br | 0.74 µM
46 | CC(C)(C)OC(=O)NCCc1nc[nH]c1Br | 10.4 µM
47 | NCCc1nc[nH]c1Br | 5.2 µM
48 | COC(=O)[C@H](Cc1c[nH]cn1)NC(=O)CCN | 0.84 µM
49 | COC(=O)[C@@H](N)Cc1nc(Br)[nH]c1Br | 9.7 µM
50 | NCCc1nc[nH]c1I | 7.6 µM

Further lines, results first:

Row | KA | SMILES
51 | 10.3 µM | COC(=O)[C@H](Cc1nc(I)[nH]c1I)NC(=O)OC(C)(C)C
52 | 45.6 µM | CC(C)(C)OC(=O)NCCc1nc(I)[nH]c1I
53 | 3.5 µM | COC(=O)[C@H](Cc1nc(I)[nH]c1I)NC(=O)CCN
54 | 13.1 µM | CC(C)(C)OC(=O)NCCc1nc(Cl)[nH]c1Cl
55 | 40.2 µM | COC(=O)[C@H](Cc1nc[nH]c1Br)NC(=O)OC(C)(C)C
56 | 0.01 µM | COC(=O)[C@H](Cc1nc(Cl)[nH]c1Cl)NC(=O)CCN
57 | 38.5 µM | COC(=O)[C@H](Cc1nc[nH]c1I)NC(=O)OC(C)(C)C

Biological target: Carbonic anhydrase 12 (Homo sapiens) (UniProt O43570)
Assay: Activation of transmembrane human carbonic anhydrase-12 incubated for 15 mins prior to testing by stopped-flow CO2 hydrase assay

Chain of Carbonic anhydrase 12 (Homo sapiens) (O43570 whole entry): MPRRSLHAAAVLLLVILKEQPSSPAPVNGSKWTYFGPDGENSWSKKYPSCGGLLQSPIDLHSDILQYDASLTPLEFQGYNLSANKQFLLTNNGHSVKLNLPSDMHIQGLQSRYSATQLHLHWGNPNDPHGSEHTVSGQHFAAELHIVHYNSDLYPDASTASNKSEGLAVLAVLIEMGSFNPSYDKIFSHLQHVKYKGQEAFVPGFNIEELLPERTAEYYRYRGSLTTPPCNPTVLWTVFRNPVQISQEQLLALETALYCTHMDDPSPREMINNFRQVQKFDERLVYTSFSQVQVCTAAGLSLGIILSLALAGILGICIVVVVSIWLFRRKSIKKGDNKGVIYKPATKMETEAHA

Row | SMILES | KA
58 | COC(=O)[C@H](Cc1nc[nH]c1Br)NC(=O)CCN | 30.7 µM
59 | COC(=O)[C@@H](N)Cc1c[nH]cn1 | 0.91 µM
60 | NCCc1nc(I)[nH]c1I | 34.6 µM
61 | COC(=O)[C@@H](N)Cc1nc[nH]c1Cl | 0.078 µM
62 | CC(C)(C)OC(=O)NCCc1nc[nH]c1Cl | 18.8 µM
63 | COC(=O)[C@H](Cc1nc[nH]c1Cl)NC(=O)CCN | 21.5 µM
64 | NCCc1nc(Br)[nH]c1Br | 25.2 µM
65 | CC(C)(C)OC(=O)NCCc1nc[nH]c1Br | 52.8 µM
66 | NCCc1nc[nH]c1Br | 3.2 µM
67 | COC(=O)[C@H](Cc1c[nH]cn1)NC(=O)CCN | 0.96 µM
68 | COC(=O)[C@@H](N)Cc1nc(Br)[nH]c1Br | 0.83 µM
69 | NCCc1nc[nH]c1I | 0.9 µM

Further lines, results first:

Row | KA | SMILES
70 | 64.7 µM | COC(=O)[C@H](Cc1nc(I)[nH]c1I)NC(=O)OC(C)(C)C
71 | 35 µM | CC(C)(C)OC(=O)NCCc1nc(I)[nH]c1I
72 | 10.5 µM | COC(=O)[C@H](Cc1nc(I)[nH]c1I)NC(=O)CCN
73 | 40.2 µM | CC(C)(C)OC(=O)NCCc1nc(Cl)[nH]c1Cl
74 | 10.7 µM | COC(=O)[C@H](Cc1nc[nH]c1Br)NC(=O)OC(C)(C)C
75 | 0.072 µM | COC(=O)[C@H](Cc1nc(Cl)[nH]c1Cl)NC(=O)CCN
76 | 6.1 µM | COC(=O)[C@H](Cc1nc[nH]c1I)NC(=O)OC(C)(C)C

Biological target: Carbonic anhydrase 14 (Homo sapiens) (UniProt Q9ULX7)
Assay: Activation of transmembrane human carbonic anhydrase-14 incubated for 15 mins prior to testing by stopped-flow CO2 hydrase assay

Chain of Carbonic anhydrase 14 (Homo sapiens) (Q9ULX7 whole entry): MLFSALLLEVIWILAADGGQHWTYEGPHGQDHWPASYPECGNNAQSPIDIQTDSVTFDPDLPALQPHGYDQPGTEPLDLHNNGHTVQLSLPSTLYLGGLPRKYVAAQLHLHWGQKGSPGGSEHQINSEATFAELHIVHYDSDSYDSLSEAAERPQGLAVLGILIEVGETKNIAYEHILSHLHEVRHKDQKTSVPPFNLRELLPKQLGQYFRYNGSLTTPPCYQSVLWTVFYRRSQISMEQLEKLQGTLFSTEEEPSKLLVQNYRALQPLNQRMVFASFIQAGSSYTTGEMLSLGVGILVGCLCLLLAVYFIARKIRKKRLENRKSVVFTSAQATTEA

Row | SMILES | KA
77 | COC(=O)[C@H](Cc1nc[nH]c1Br)NC(=O)CCN | 28.4 µM
78 | COC(=O)[C@@H](N)Cc1c[nH]cn1 | 0.93 µM
79 | NCCc1nc(I)[nH]c1I | 15.5 µM
80 | COC(=O)[C@@H](N)Cc1nc[nH]c1Cl | 6.4 µM
81 | CC(C)(C)OC(=O)NCCc1nc[nH]c1Cl | 45.2 µM
82 | COC(=O)[C@H](Cc1nc[nH]c1Cl)NC(=O)CCN | 15.3 µM
83 | NCCc1nc(Br)[nH]c1Br | 13.1 µM
84 | CC(C)(C)OC(=O)NCCc1nc[nH]c1Br | 34.7 µM
85 | NCCc1nc[nH]c1Br | 16.2 µM
86 | COC(=O)[C@H](Cc1c[nH]cn1)NC(=O)CCN | 0.71 µM
87 | COC(=O)[C@@H](N)Cc1nc(Br)[nH]c1Br | 22.1 µM
88 | NCCc1nc[nH]c1I | 7.1 µM

The remaining lines, values ahead:

Row | KA | SMILES
89 | 34.9 µM | COC(=O)[C@H](Cc1nc(I)[nH]c1I)NC(=O)OC(C)(C)C
90 | 37.1 µM | CC(C)(C)OC(=O)NCCc1nc(I)[nH]c1I
91 | 20.1 µM | COC(=O)[C@H](Cc1nc(I)[nH]c1I)NC(=O)CCN
92 | 28.1 µM | CC(C)(C)OC(=O)NCCc1nc(Cl)[nH]c1Cl
93 | 0.92 µM | COC(=O)[C@H](Cc1nc[nH]c1Br)NC(=O)OC(C)(C)C
94 | 10.3 µM | COC(=O)[C@H](Cc1nc(Cl)[nH]c1Cl)NC(=O)CCN
95 | 13.5 µM | COC(=O)[C@H](Cc1nc[nH]c1I)NC(=O)OC(C)(C)C
